Organism: Rattus norvegicus
Test: DrugMatrix - Regimen: Daily Repeat
Type: toxicity, organism-based, Sprague-Dawley
Parameters: regimen Daily Repeat, gender Male, age 6-8 weeks
Conditions: in vivo, iv, vehicle 100 % SALINE; for ABSOLUTE BASOPHIL / ABSOLUTE EOSINOPHIL / ABSOLUTE LYMPHOCYTE / ABSOLUTE MONOCYTE / ABSOLUTE SEGMENTED NEUTROPHIL / BASOPHIL / EOSINOPHIL / ERYTHROCYTE COUNT / HEMATOCRIT / HEMOGLOBIN / LEUKOCYTE COUNT / LYMPHOCYTE / MEAN CORPUSCULAR HEMOGLOBIN / MEAN CORPUSCULAR HEMOGLOBIN CONCENTRATION / MEAN CORPUSCULAR VOLUME / MONOCYTE / NEUTROPHIL / NUCLEATED RED BLOOD CELLS / PLATELET COUNT: tissue Blood; for ALANINE AMINOTRANSFERASE / ALBUMIN / ALKALINE PHOSPHATASE / ASPARTATE AMINOTRANSFERASE / BLOOD UREA NITROGEN / CARBON DIOXIDE / CHLORIDE / CHOLESTEROL / CREATINE PHOSPHOKINASE / CREATININE / GLUCOSE / LACTATE DEHYDROGENASE / LIPASE / PHOSPHORUS / POTASSIUM / SODIUM / TOTAL BILIRUBIN / TOTAL PROTEIN / URIC ACID: tissue Plasma
[1] = 0 mg/kg, 72 h, dose level Control, time 3 day
[2] = 0 mg/kg, 120 h, dose level Control, time 5 day
[3] = […], 72 h, dose 0.0033 mg/Kg, dose level Low, time 3 day
[4] = […], 72 h, dose 0.033 mg/Kg, dose level High, time 3 day

## COc1cc2c3cc1Oc1cc(ccc1O)C[C@@H]1c4c(cc(OC)c(O)c4Oc4ccc(cc4)C[C@@H]3N(C)CC2)CC[N+]1(C)C.[Cl-]
[1]
  ABSOLUTE BASOPHIL: 0 CELLS/uL
  ABSOLUTE EOSINOPHIL: 0 CELLS/uL
  ABSOLUTE LYMPHOCYTE: 11636.83 CELLS/uL
  ABSOLUTE MONOCYTE: 159 CELLS/uL
  ABSOLUTE SEGMENTED NEUTROPHIL: 1170.83 CELLS/uL
  BASOPHIL: 0%
  EOSINOPHIL: 0%
  ERYTHROCYTE COUNT: 5.46 x10E6/uL
  HEMATOCRIT: 34.05%
  HEMOGLOBIN: 13.58 G/DL
  LEUKOCYTE COUNT: 12.97 x10E3/uL
  LYMPHOCYTE: 89.67%
  MEAN CORPUSCULAR HEMOGLOBIN: 24.87 pg
  MEAN CORPUSCULAR HEMOGLOBIN CONCENTRATION: 39.9 G/DL
  MEAN CORPUSCULAR VOLUME: 62.3 fL
  MONOCYTE: 1.33%
  NEUTROPHIL: 9%
  NUCLEATED RED BLOOD CELLS: 0.17 /100WBC
  PLATELET COUNT: 824 x10E3/uL
  ALANINE AMINOTRANSFERASE: 64.83 u/L
  ALBUMIN: 4.08 G/DL
  ALKALINE PHOSPHATASE: 421 u/L
  ASPARTATE AMINOTRANSFERASE: 116.83 u/L
  BLOOD UREA NITROGEN: 16.83 mg/dL
  CARBON DIOXIDE: 28 mmol/L
  CHLORIDE: 101.33 MEQ/L
  CHOLESTEROL: 74.17 mg/dL
  CREATINE PHOSPHOKINASE: 748.5 u/L
  CREATININE: 0.22 mg/dL
  GLUCOSE: 152.83 mg/dL
  LACTATE DEHYDROGENASE: 578.5 u/L
  LIPASE: 9.83 u/L
  PHOSPHORUS: 11.63 mg/dL
  POTASSIUM: 5.93 MEQ/L
  SODIUM: 142.1 MEQ/L
  TOTAL BILIRUBIN: 0.17 mg/dL
  TOTAL PROTEIN: 5.77 G/DL
  URIC ACID: 1.43 mg/dL
[2]
  ABSOLUTE BASOPHIL: 0 CELLS/uL
  ABSOLUTE EOSINOPHIL: 159.17 CELLS/uL
  ABSOLUTE LYMPHOCYTE: 12267.5 CELLS/uL
  ABSOLUTE MONOCYTE: 30 CELLS/uL
  ABSOLUTE SEGMENTED NEUTROPHIL: 1160 CELLS/uL
  BASOPHIL: 0%
  EOSINOPHIL: 1.17%
  ERYTHROCYTE COUNT: 5.52 x10E6/uL
  HEMATOCRIT: 34.3%
  HEMOGLOBIN: 13.73 G/DL
  LEUKOCYTE COUNT: 13.62 x10E3/uL
  LYMPHOCYTE: 90.5%
  MEAN CORPUSCULAR HEMOGLOBIN: 24.92 pg
  MEAN CORPUSCULAR HEMOGLOBIN CONCENTRATION: 40.07 G/DL
  MEAN CORPUSCULAR VOLUME: 62.17 fL
  MONOCYTE: 0.17%
  NEUTROPHIL: 8.17%
  NUCLEATED RED BLOOD CELLS: 0.17 /100WBC
  PLATELET COUNT: 1261.83 x10E3/uL
  ALANINE AMINOTRANSFERASE: 58.67 u/L
  ALBUMIN: 4.15 G/DL
  ALKALINE PHOSPHATASE: 364.67 u/L
  ASPARTATE AMINOTRANSFERASE: 105.33 u/L
  BLOOD UREA NITROGEN: 17.67 mg/dL
  CARBON DIOXIDE: 26.5 mmol/L
  CHLORIDE: 101.67 MEQ/L
  CHOLESTEROL: 63 mg/dL
  CREATINE PHOSPHOKINASE: 480.67 u/L
  CREATININE: 0.17 mg/dL
  GLUCOSE: 144.67 mg/dL
  LACTATE DEHYDROGENASE: 540.33 u/L
  LIPASE: 10.33 u/L
  PHOSPHORUS: 11.52 mg/dL
  POTASSIUM: 6.12 MEQ/L
  SODIUM: 142.45 MEQ/L
  TOTAL BILIRUBIN: 0.18 mg/dL
  TOTAL PROTEIN: 5.73 G/DL
  URIC ACID: 1.48 mg/dL
[3]
  ABSOLUTE BASOPHIL: 0 CELLS/uL
  ABSOLUTE EOSINOPHIL: 38.67 CELLS/uL
  ABSOLUTE LYMPHOCYTE: 9113.67 CELLS/uL
  ABSOLUTE MONOCYTE: 101 CELLS/uL
  ABSOLUTE SEGMENTED NEUTROPHIL: 846.67 CELLS/uL
  BASOPHIL: 0%
  EOSINOPHIL: 0.33%
  ERYTHROCYTE COUNT: 5.25 x10E6/uL
  HEMATOCRIT: 31.97%
  HEMOGLOBIN: 12.93 G/DL
  LEUKOCYTE COUNT: 10.1 x10E3/uL
  LYMPHOCYTE: 90.33%
  MEAN CORPUSCULAR HEMOGLOBIN: 24.73 pg
  MEAN CORPUSCULAR HEMOGLOBIN CONCENTRATION: 40.53 G/DL
  MEAN CORPUSCULAR VOLUME: 60.97 fL
  MONOCYTE: 1%
  NEUTROPHIL: 8.33%
  NUCLEATED RED BLOOD CELLS: 0 /100WBC
  PLATELET COUNT: 798.67 x10E3/uL
[4]
  ABSOLUTE BASOPHIL: 0 CELLS/uL
  ABSOLUTE EOSINOPHIL: 61.33 CELLS/uL
  ABSOLUTE LYMPHOCYTE: 18023 CELLS/uL
  ABSOLUTE MONOCYTE: 62 CELLS/uL
  ABSOLUTE SEGMENTED NEUTROPHIL: 687 CELLS/uL
  BASOPHIL: 0%
  EOSINOPHIL: 0.33%
  ERYTHROCYTE COUNT: 5 x10E6/uL
  HEMATOCRIT: 31.67%
  HEMOGLOBIN: 13 G/DL
  LEUKOCYTE COUNT: 18.83 x10E3/uL
  LYMPHOCYTE: 95.67%
  MEAN CORPUSCULAR HEMOGLOBIN: 26 pg
  MEAN CORPUSCULAR HEMOGLOBIN CONCENTRATION: 41.03 G/DL
  MEAN CORPUSCULAR VOLUME: 63.33 fL
  MONOCYTE: 0.33%
  NEUTROPHIL: 3.67%
  NUCLEATED RED BLOOD CELLS: 0 /100WBC
  PLATELET COUNT: 1148.67 x10E3/uL

Reference: ChEMBL document CHEMBL3885881, “DrugMatrix”
